One data set relates to HepaRG cells. As to the kind of experiment: HepaRG-based assay: 3H-taurocholic acid uptake in differentiated HepaRG cells. The format is cell-based. The settings on record: 0.3 μM 3H-taurocholic acid and 7.5 μM cold taurocholic acid, 30 minutes. Summed up: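 Differentiated HepaRG cells cultured 7 days post-seeding were exposed for 30 min at 37 °C to 0.3 μM 3H-taurocholic acid plus 7.5 μM cold taurocholic acid with inhibitor (3-fold dilutions, 0.2% DMSO). Uptake was stopped on ice, washed with 1 mM unlabelled taurocholic acid, and counted by scintillation.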

Data set [1] is described as follows: Bioavailability studies in mice. Format: in vivo. As to conditions: mouse; C57BL/6 mice; single intravenous dose 1 mg/kg vs single oral dose 10 mg/kg; plasma LC-MS/MS. The protocol:
C57BL/6 mice of 8-9 weeks old were used. For each test compound, two groups of 3 animals each were used. One group was administered a single intravenous dose of 1 mg/kg (vehicle 100% DMSO) through the tail vein and the other group was administered a single oral dose of 10 mg/kg through gavage needle. The group that was administered an oral dose was fasted overnight. Blood samples were collected after 0.083, 0.25, 0.5, 1, 2, 4, 6, 8 and 24 hours following intravenous administration, and after 0.25, 0.5, 1, 2, 4, 6, 8 and 24 hours following oral administration. Blood samples were taken from saphenous vein. 0.2% EDTA was used as the anticoagulant. The samples were analyzed by a discovery grade bioanalytical method developed for the estimation of test compound in plasma, using an LC-MS/MS system.

For orientation: IC50 means the concentration needed to halve the response being measured. The low end stands for greater potency in that assay, the high end for weaker potency in that assay. As a reminder, the bioavailability is the share of a dose that reaches the circulation, judged against a reference dose that is usually intravenous. In the data set on HepaRG cells (Homo sapiens, HepaRG), `CCCCC1(CC)CN(c2ccccc2)c2cc(Br)c(O/C=C/C(=O)O)cc2S(=O)(=O)C1` (single isomer, unassigned) [Example 6, (E)-3-((7-bromo-3-butyl-3-ethyl-1,1-dioxido-5-phenyl-2,3,4,5-tetrahydro-1,5-benzothiazepin-8-yl)oxy)acrylic acid] registered an IC50 of 809 nM. Moreover, the bioavailability in data set [1] is 100%.

Take `CCCCC1(CC)CN(c2ccccc2)c2cc(SC)c(O/C=C/C(=O)O)cc2S(=O)(=O)C1` (single isomer, unassigned) [Example 18, (E)-3-((3-butyl-3-ethyl-7-(methylthio)-1,1-dioxido-5-phenyl-2,3,4,5-tetrahydro-1,5-benzothiazepin-8-yl)oxy)acrylic acid]: half-maximal inhibition in the data set with HepaRG cells (Homo sapiens, HepaRG) (IC50) required 1260 nM. The bioavailability in data set [1] worked out at 35%.

`CCCCC1(CC)CN(c2ccccc2)c2cc(SC)c(O/C=C(\F)C(=O)O)cc2S(=O)(=O)C1` (single isomer, unassigned) [Example 43, (Z)-3-((3-butyl-3-ethyl-7-(methylthio)-1,1-dioxido-5-phenyl-2,3,4,5-tetrahydro-1,5-benzothiazepin-8-yl)oxy)-2-fluoroacrylic acid] had an IC50 with HepaRG cells of 405 nM. In data set [1], this compound had a bioavailability of 44%.

In turn, `CCCCC1(CC)CN(c2ccccc2)c2cc(Cl)c(O/C=C(\F)C(=O)O)cc2S(=O)(=O)C1` (single isomer, unassigned) [Example 48, (Z)-3-((3-butyl-7-chloro-3-ethyl-1,1-dioxido-5-phenyl-2,3,4,5-tetrahydro-1,5-benzothiazepin-8-yl)oxy)-2-fluoroacrylic acid] yielded an IC50 in the data set on HepaRG cells of 260 nM. Besides, the bioavailability in data set [1] came to 18%.

As to `CCCCC1(CCCC)CN(c2ccccc2)c2cc(SC)c(O/C=C(\F)C(=O)O)cc2S(=O)(=O)C1` [Example 11, (Z)-3-((3,3-dibutyl-7-(methylthio)-1,1-dioxido-5-phenyl-2,3,4,5-tetrahydro-1,5-benzothiazepin-8-yl)oxy)-2-fluoroacrylic acid], in the data set on HepaRG cells (Homo sapiens, HepaRG), the IC50 was found to be 1090 nM. For the same compound, the bioavailability in data set [1] was found to be 27%.

The compound `CCC1(CC)CN(c2ccccc2)c2cc(SC)c(O/C=C(\F)C(=O)O)cc2S(=O)(=O)C1` [Example 44, (Z)-3-((3,3-diethyl-7-(methylthio)-1,1-dioxido-5-phenyl-2,3,4,5-tetrahydro-1,5-benzothiazepin-8-yl)oxy)-2-fluoroacrylic Acid] registered a concentration for half-maximal inhibition (IC50) with HepaRG cells (Homo sapiens, HepaRG) of 205 nM. The bioavailability in data set [1] amounted to 100%.

Source of the values: patent publication US11306064B2, “Benzothia(di)azepine compounds and their use as bile acid modulators” (Albireo AB, priority 2018, dated 2022).
